Consider 65 compounds from patent US6979686B1, “Substituted pyrazoles as p38 kinase inhibitors” (Pharmacia Corporation, priority 2001, dated 2005).

Bounds are passed on as bounds.

In the first experiment the target is T1, human p38 kinase alpha (Homo sapiens, UniProt Q16539).
T1 construct: GST (N, cleaved yes); made in house; host or cells: E. coli DH10B
T1 sequence (Q16539 whole entry): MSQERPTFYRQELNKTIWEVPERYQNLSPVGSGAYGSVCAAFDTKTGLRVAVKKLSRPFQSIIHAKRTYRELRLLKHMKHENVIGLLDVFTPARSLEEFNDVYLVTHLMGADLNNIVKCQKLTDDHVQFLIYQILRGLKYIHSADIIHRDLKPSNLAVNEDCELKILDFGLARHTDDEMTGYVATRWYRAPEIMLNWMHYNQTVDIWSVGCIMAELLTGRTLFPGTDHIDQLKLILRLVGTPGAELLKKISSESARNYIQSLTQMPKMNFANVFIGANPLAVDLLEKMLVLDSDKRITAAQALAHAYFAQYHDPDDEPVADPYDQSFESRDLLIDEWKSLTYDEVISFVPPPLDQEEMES
Kind of experiment: p38 kinase in vitro assay, phosphorylation of biotinylated PHAS-I with 32P-ATP. To be noted: @ 1.0 uM. The class given is biochemical.
Take `CN(C)C(=O)NCCCc1[nH]nc(-c2ccc(F)cc2)c1-c1ccncc1` [Example B-1212]: the “P38 alpha kinase % inhib @ conc.” value came out at 90.0% @.
`CNC(=O)NCCCc1[nH]nc(-c2ccc(F)cc2)c1-c1ccncc1` [Example B-1213]: the “P38 alpha kinase % inhib @ conc.” value is listed as 84.0% @.
Same read-out and setting: under `CN(C(=O)NCCCc1[nH]nc(-c2ccc(F)cc2)c1-c1ccncc1)c1ccccc1` [Example B-1214] stands 76.0% @.
The same measure, in the same setting: then `O=C(NCCCc1[nH]nc(-c2ccc(F)cc2)c1-c1ccncc1)Nc1ccccc1F` [Example B-1215], with 86.0% @; and `Cc1cccc(C)c1NC(=O)NCCCc1[nH]nc(-c2ccc(F)cc2)c1-c1ccncc1` [Example B-1216], with 88.0% @; and `C=CCNC(=O)NCCCc1[nH]nc(-c2ccc(F)cc2)c1-c1ccncc1` [Example B-1217], with 87.0% @.
On the same count and under the same terms, then `CCCNC(=O)NCCCc1[nH]nc(-c2ccc(F)cc2)c1-c1ccncc1` [Example B-1218], with 88.0% @; and `O=C(NCCCc1[nH]nc(-c2ccc(F)cc2)c1-c1ccncc1)Nc1ccccc1` [Example B-1220], with 81.0% @.
For `O=C(NCCCc1[nH]nc(-c2ccc(F)cc2)c1-c1ccncc1)NCCc1ccccc1` [Example B-1221], the “P38 alpha kinase % inhib @ conc.” value is 82.0% @.
Same read-out and setting: under `COc1ccc(NC(=O)NCCCc2[nH]nc(-c3ccc(F)cc3)c2-c2ccncc2)cc1` [Example B-1224] stands 82.0% @; under `CCN(CC)C(=O)NCCCc1[nH]nc(-c2ccc(F)cc2)c1-c1ccncc1` [Example B-1225], 89.0% @.
For the compound `CCNC(=O)NCCCc1[nH]nc(-c2ccc(F)cc2)c1-c1ccncc1` [Example B-1226], the “P38 alpha kinase % inhib @ conc.” value was 89.0% @.
Same read-out and setting: then `COc1ccc(NC(=O)NCCCc2[nH]nc(-c3ccc(F)cc3)c2-c2ccncc2)c(OC)c1` [Example B-1227], with 83.0% @.
`O=C(Cc1cccs1)NCCCc1[nH]nc(-c2ccc(F)cc2)c1-c1ccncc1` [Example B-1228]: the “P38 alpha kinase % inhib @ conc.” value worked out at 90.0% @.
Still for that read-out and setting: then `CC(C)(C)C(=O)NCCCc1[nH]nc(-c2ccc(F)cc2)c1-c1ccncc1` [Example B-1229], with 87.0% @; and `CCCOC(=O)NCCCc1[nH]nc(-c2ccc(F)cc2)c1-c1ccncc1` [Example B-1230], with 90.0% @.
On to `CCOC(=O)NCCCc1[nH]nc(-c2ccc(F)cc2)c1-c1ccncc1` [Example B-1231], for which the “P38 alpha kinase % inhib @ conc.” value was 94.0% @.
Turning to `O=C(NCCCc1[nH]nc(-c2ccc(F)cc2)c1-c1ccncc1)C1CCCN1` (centres unmarked) [Example B-1232], the “P38 alpha kinase % inhib @ conc.” value worked out at 81.0% @.
`O=C(NCCCc1[nH]nc(-c2ccc(F)cc2)c1-c1ccncc1)[C@H]1CCCN1` [Example B-1233]: the “P38 alpha kinase % inhib @ conc.” value is 85.0% @.
On to `CC(C)OC(=O)NCCCc1[nH]nc(-c2ccc(F)cc2)c1-c1ccncc1` [Example B-1234], for which the “P38 alpha kinase % inhib @ conc.” value was 89.0% @.

The experiment is the same for the next values; noted with them: in vitro P38-alpha kinase; read-out: P38 alpha kinase IC50.
The term IC50 denotes the concentration at which inhibition is half-maximal. For `CC(=O)Nc1nc(C)c(S(=O)(=O)NCCCc2[nH]nc(-c3ccc(F)cc3)c2-c2ccncc2)s1` [Example B-1235], the IC50 is 40 nM.
The same measure, in the same setting: then `CC(=O)Nc1ccc(S(=O)(=O)NCCCc2[nH]nc(-c3ccc(F)cc3)c2-c2ccncc2)cc1` [Example B-1236], with 100 nM; and `O=S(=O)(NCCCc1[nH]nc(-c2ccc(F)cc2)c1-c1ccncc1)c1ccc(Br)cc1` [Example B-1237], with 220 nM; and `O=S(=O)(NCCCc1[nH]nc(-c2ccc(F)cc2)c1-c1ccncc1)c1ccc(Cl)cc1` [Example B-1238], with 140 nM.
`O=S(=O)(NCCCc1[nH]nc(-c2ccc(F)cc2)c1-c1ccncc1)c1cc(Cl)cc(Cl)c1O` [Example B-1241]: the IC50 was determined as 40 nM.
In the case of `O=C(O)c1ccccc1S(=O)(=O)NCCCc1[nH]nc(-c2ccc(F)cc2)c1-c1ccncc1` [Example B-1242], the IC50 turned out to be 80 nM.
`O=S(=O)(NCCCc1[nH]nc(-c2ccc(F)cc2)c1-c1ccncc1)c1cc(Cl)ccc1Cl` [Example B-1243]: the IC50 came out at 40 nM.
For the compound `Cc1cc(C)c(S(=O)(=O)NCCCc2[nH]nc(-c3ccc(F)cc3)c2-c2ccncc2)c(C)c1` [Example B-1244], the IC50 is 260 nM.
Same read-out and setting: under `O=S(=O)(NCCCc1[nH]nc(-c2ccc(F)cc2)c1-c1ccncc1)c1ccc2ccccc2c1` [Example B-1245] stands 490 nM; under `O=S(=O)(NCCCc1[nH]nc(-c2ccc(F)cc2)c1-c1ccncc1)c1cccc2ccccc12` [Example B-1246], 270 nM.
Still for that read-out and setting: under `O=[N+]([O-])c1ccccc1CS(=O)(=O)NCCCc1[nH]nc(-c2ccc(F)cc2)c1-c1ccncc1` [Example B-1247] stands less than 100 nM; under `O=S(=O)(NCCCc1[nH]nc(-c2ccc(F)cc2)c1-c1ccncc1)c1cccc2cccnc12` [Example B-1248], less than 100 nM; under `CN(C)c1cccc2c(S(=O)(=O)NCCCc3[nH]nc(-c4ccc(F)cc4)c3-c3ccncc3)cccc12` [Example B-1249], 240 nM.
The same measure, in the same setting: under `CC(C)c1ccc(S(=O)(=O)NCCCc2[nH]nc(-c3ccc(F)cc3)c2-c2ccncc2)cc1` [Example B-1251] stands 410 nM; under `Cc1c(Cl)cccc1S(=O)(=O)NCCCc1[nH]nc(-c2ccc(F)cc2)c1-c1ccncc1` [Example B-1252], 170 nM.
Turning to `O=S(=O)(NCCCc1[nH]nc(-c2ccc(F)cc2)c1-c1ccncc1)c1ccc(Cl)cc1Cl` [Example B-1253], the IC50 came to 150 nM.
Same read-out and setting: then `O=S(=O)(NCCCc1[nH]nc(-c2ccc(F)cc2)c1-c1ccncc1)c1ccc(F)cc1Cl` [Example B-1254], with 160 nM.
The same measure, in the same setting: then `N#Cc1ccccc1S(=O)(=O)NCCCc1[nH]nc(-c2ccc(F)cc2)c1-c1ccncc1` [Example B-1255], with 12900 nM; and `Cc1ccc(F)cc1S(=O)(=O)NCCCc1[nH]nc(-c2ccc(F)cc2)c1-c1ccncc1` [Example B-1256], with 120 nM.
Still for that read-out and setting: then `O=S(=O)(NCCCc1[nH]nc(-c2ccc(F)cc2)c1-c1ccncc1)c1cc(Cl)c(Cl)s1` [Example B-1257], with 1480 nM; and `O=S(=O)(NCCCc1[nH]nc(-c2ccc(F)cc2)c1-c1ccncc1)c1c(Cl)cccc1Cl` [Example B-1258], with 70 nM; and `CCCCOc1ccc(S(=O)(=O)NCCCc2[nH]nc(-c3ccc(F)cc3)c2-c2ccncc2)cc1` [Example B-1261], with 740 nM.
`COc1ccc(OC)c(S(=O)(=O)NCCCc2[nH]nc(-c3ccc(F)cc3)c2-c2ccncc2)c1` [Example B-1262]: the IC50 is less than 100 nM.
The same measure, in the same setting: under `O=S(=O)(NCCCc1[nH]nc(-c2ccc(F)cc2)c1-c1ccncc1)c1ccccc1C(F)(F)F` [Example B-1263] stands 1050 nM; under `O=S(=O)(NCCCc1[nH]nc(-c2ccc(F)cc2)c1-c1ccncc1)c1ccc(C(F)(F)F)cc1` [Example B-1264], 320 nM; under `CCc1ccc(S(=O)(=O)NCCCc2[nH]nc(-c3ccc(F)cc3)c2-c2ccncc2)cc1` [Example B-1265], 430 nM.
On the same count and under the same terms, under `Cc1cccc(S(=O)(=O)NCCCc2[nH]nc(-c3ccc(F)cc3)c2-c2ccncc2)c1` [Example B-1266] stands less than 100 nM.
On the same count and under the same terms, then `O=S(=O)(NCCCc1[nH]nc(-c2ccc(F)cc2)c1-c1ccncc1)c1cccc(Cl)c1` [Example B-1267], with less than 100 nM; and `O=S(=O)(NCCCc1[nH]nc(-c2ccc(F)cc2)c1-c1ccncc1)c1ccccc1Cl` [Example B-1268], with less than 100 nM; and `O=S(=O)(NCCCc1[nH]nc(-c2ccc(F)cc2)c1-c1ccncc1)c1cc(Cl)cc(Cl)c1` [Example B-1269], with 460 nM.
Regarding `O=S(=O)(NCCCc1[nH]nc(-c2ccc(F)cc2)c1-c1ccncc1)c1ccc(Cl)c(Cl)c1` [Example B-1270], the IC50 came out at 470 nM.
Regarding `Cc1cccc(Cl)c1S(=O)(=O)NCCCc1[nH]nc(-c2ccc(F)cc2)c1-c1ccncc1` [Example B-1272], the IC50 amounted to 14 nM.
With `Cc1ccccc1S(=O)(=O)NCCCc1[nH]nc(-c2ccc(F)cc2)c1-c1ccncc1` [Example B-1274], the IC50 was less than 100 nM.
On to `COc1ccc(C)cc1S(=O)(=O)NCCCc1[nH]nc(-c2ccc(F)cc2)c1-c1ccncc1` [Example B-1275], for which the IC50 was less than 100 nM.
On the same count and under the same terms, under `CC1(C)[C@@H]2CC[C@@]1(S(=O)(=O)NCCCc1[nH]nc(-c3ccc(F)cc3)c1-c1ccncc1)C(=O)C2` [Example B-1277] stands less than 100 nM; under `O=S(=O)(NCCCc1[nH]nc(-c2ccc(F)cc2)c1-c1ccncc1)c1ccc(Cl)s1` [Example B-1278], 120 nM; under `COc1ccc(Br)cc1S(=O)(=O)NCCCc1[nH]nc(-c2ccc(F)cc2)c1-c1ccncc1` [Example B-1279], less than 100 nM.
On to `O=S(=O)(NCCCc1[nH]nc(-c2ccc(F)cc2)c1-c1ccncc1)c1ccc2ccccc2c1` [Example B-1280], for which the IC50 is 39 nM.
The same measure, in the same setting: under `O=S(=O)(NCCCc1[nH]nc(-c2ccc(F)cc2)c1-c1ccncc1)c1cccc2nonc12` [Example B-1282] stands less than 100 nM; under `O=C(NCc1ccc(S(=O)(=O)NCCCc2[nH]nc(-c3ccc(F)cc3)c2-c2ccncc2)s1)c1ccccc1` [Example B-1285], 57 nM; under `O=S(=O)(NCCCc1[nH]nc(-c2ccc(F)cc2)c1-c1ccncc1)c1ccc(-c2ccccc2)cc1` [Example B-1286], 150 nM.
The same measure, in the same setting: then `Cc1c(C)c(S(=O)(=O)NCCCc2[nH]nc(-c3ccc(F)cc3)c2-c2ccncc2)c(C)c2c1OC(C)(C)CC2` [Example B-1287], with 250 nM; and `O=S(=O)(NCCCc1[nH]nc(-c2ccc(F)cc2)c1-c1ccncc1)c1ccc(-c2ccccn2)s1` [Example B-1288], with 150 nM.
For the compound `O=S(=O)(NCCCc1[nH]nc(-c2ccc(F)cc2)c1-c1ccncc1)c1cc(S(=O)(=O)c2ccccc2)cs1` [Example B-1289], the IC50 was 730 nM.
For the compound `O=S(=O)(NCCCc1[nH]nc(-c2ccc(F)cc2)c1-c1ccncc1)c1ccc(-c2ccon2)s1` [Example B-1290], the IC50 worked out at 260 nM.
